According to PubChem BioAssay AID2060890 (Molecular Pharmacology Branch, DTP, NCI, 2025):
One block for each compound: values may come before it.

System: LG0703-F948-PDC complex spheroid viability
Assay: Anticancer human tumor LG0703-F948-PDC patient-derived lung adenocarcinoma cell line growth inhibition [RAS]
Settings: for IC50: curve of first compound; for viability, T/C: stronger effect = lower value
Outline: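 Multi-cell-type spheroids: tumor cells plus HUVEC endothelial cells and mesenchymal stem cells. RAS-pathway inhibitors were combined with targeted agents, each dosed in half-log steps down from clinical Cmax, or from 10 microM when Cmax was unknown.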

[1] = second compound 0.00316 µM, first compound 0.0316 µM
[2] = second compound 0.00316 µM, first compound 0.1 µM
[3] = second compound 0.00316 µM, first compound 0.316 µM
[4] = second compound 0.00316 µM, first compound 1 µM
[5] = second compound 0.01 µM, first compound 0.0316 µM
[6] = second compound 0.01 µM, first compound 0.1 µM
[7] = second compound 0.01 µM, first compound 0.316 µM
[8] = second compound 0.01 µM, first compound 1 µM
[9] = second compound 0.0316 µM, first compound 0.0316 µM
[10] = second compound 0.0316 µM, first compound 0.1 µM
[11] = second compound 0.0316 µM, first compound 0.316 µM
[12] = second compound 0.0316 µM, first compound 1 µM
[13] = second compound 0.1 µM, first compound 0.0316 µM
[14] = second compound 0.1 µM, first compound 0.1 µM
[15] = second compound 0.1 µM, first compound 0.316 µM
[16] = second compound 0.1 µM, first compound 1 µM
[17] = second compound 0.316 µM, first compound 0.0316 µM
[18] = second compound 0.316 µM, first compound 0.1 µM
[19] = second compound 0.316 µM, first compound 0.316 µM
[20] = second compound 0.316 µM, first compound 1 µM
[21] = second compound 1 µM, first compound 0.0316 µM
[22] = second compound 1 µM, first compound 0.1 µM
[23] = second compound 1 µM, first compound 0.316 µM
[24] = second compound 1 µM, first compound 1 µM
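Also: spheroids exposed to agents for 7 days.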
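For viability, T/C in this document: 100% = DMSO vehicle wells.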

IC50 (second compound 0.00316 µM): 577 nM | IC50 (second compound 0.01 µM): 656 nM | IC50 (second compound 0.0316 µM): 625 nM | IC50 (second compound 0.1 µM): 650 nM | IC50 (second compound 0.316 µM): 640 nM | IC50 (second compound 1 µM): 696 nM
SMILES: CC(C)NCC(C(=O)N1CCN(c2ncnc3c2C(C)CC3O)CC1)c1ccc(Cl)cc1 (configuration not stated) + C=CC(=O)N1CCN(c2nc(OCC3CCCN3C)nc3c(F)c(-c4nc(N)cc(C)c4C(F)(F)F)c(Cl)cc23)C(C)C1
viability, T/C [1]: 97% | viability, T/C [2]: 77.6% | viability, T/C [3]: 56.9% | viability, T/C [4]: 44.7% | viability, T/C (second compound 0.00316 µM, first compound 3.16 µM): 28.1% | viability, T/C (second compound 0.00316 µM, first compound 10 µM): 21.6% | viability, T/C [5]: 96.4% | viability, T/C [6]: 78.8% | viability, T/C [7]: 56.2% | viability, T/C [8]: 46.5% | viability, T/C (second compound 0.01 µM, first compound 3.16 µM): 31.6% | viability, T/C (second compound 0.01 µM, first compound 10 µM): 20.8% | viability, T/C [9]: 100% | viability, T/C [10]: 79.9% | viability, T/C [11]: 61.9% | viability, T/C [12]: 40.4% | viability, T/C (second compound 0.0316 µM, first compound 3.16 µM): 33.3% | viability, T/C (second compound 0.0316 µM, first compound 10 µM): 23.3% | viability, T/C [13]: 87.3% | viability, T/C [14]: 74.6% | viability, T/C [15]: 62% | viability, T/C [16]: 42% | viability, T/C (second compound 0.1 µM, first compound 3.16 µM): 31.6% | viability, T/C (second compound 0.1 µM, first compound 10 µM): 21.2% | viability, T/C [17]: 103% | viability, T/C [18]: 82% | viability, T/C [19]: 58.5% | viability, T/C [20]: 44.2% | viability, T/C (second compound 0.316 µM, first compound 3.16 µM): 29.8% | viability, T/C (second compound 0.316 µM, first compound 10 µM): 18.5% | viability, T/C [21]: 104% | viability, T/C [22]: 97% | viability, T/C [23]: 61.4% | viability, T/C [24]: 44.9% | viability, T/C (second compound 1 µM, first compound 3.16 µM): 25.8% | viability, T/C (second compound 1 µM, first compound 10 µM): 15.1%

IC50 (second compound 0.00316 µM): > 1000 nM | IC50 (second compound 0.01 µM): > 1000 nM | IC50 (second compound 0.0316 µM): > 1000 nM | IC50 (second compound 0.1 µM): > 1000 nM | IC50 (second compound 0.316 µM): > 1000 nM | IC50 (second compound 1 µM): > 1000 nM
SMILES: CCN1CCN(Cc2ccc(Nc3ncc(F)c(-c4cc(F)c5nc(C)n(C(C)C)c5c4)n3)nc2)CC1 + C=CC(=O)N1CCN(c2nc(OCC3CCCN3C)nc3c(F)c(-c4nc(N)cc(C)c4C(F)(F)F)c(Cl)cc23)C(C)C1
viability, T/C (second compound 0.00316 µM, first compound 0.00316 µM): 106% | viability, T/C (second compound 0.00316 µM, first compound 0.01 µM): 92.5% | viability, T/C [1]: 85.5% | viability, T/C [2]: 74.7% | viability, T/C [3]: 85.3% | viability, T/C [4]: 66.9% | viability, T/C (second compound 0.01 µM, first compound 0.00316 µM): 110% | viability, T/C (second compound 0.01 µM, first compound 0.01 µM): 98.8% | viability, T/C [5]: 89.8% | viability, T/C [6]: 86.5% | viability, T/C [7]: 81% | viability, T/C [8]: 71% | viability, T/C (second compound 0.0316 µM, first compound 0.00316 µM): 108% | viability, T/C (second compound 0.0316 µM, first compound 0.01 µM): 109% | viability, T/C [9]: 91.1% | viability, T/C [10]: 79.7% | viability, T/C [11]: 82.7% | viability, T/C [12]: 61.7% | viability, T/C (second compound 0.1 µM, first compound 0.00316 µM): 106% | viability, T/C (second compound 0.1 µM, first compound 0.01 µM): 98.9% | viability, T/C [13]: 92.5% | viability, T/C [14]: 78% | viability, T/C [15]: 84.3% | viability, T/C [16]: 68.9% | viability, T/C (second compound 0.316 µM, first compound 0.00316 µM): 106% | viability, T/C (second compound 0.316 µM, first compound 0.01 µM): 95.6% | viability, T/C [17]: 89.6% | viability, T/C [18]: 81.5% | viability, T/C [19]: 78.7% | viability, T/C [20]: 64.3% | viability, T/C (second compound 1 µM, first compound 0.00316 µM): 109% | viability, T/C (second compound 1 µM, first compound 0.01 µM): 109% | viability, T/C [21]: 108% | viability, T/C [22]: 81.2% | viability, T/C [23]: 87.4% | viability, T/C [24]: 65.3%

SMILES: O=C(c1ccc(F)c(F)c1Nc1ccc(I)cc1F)N1CC(O)([C@@H]2CCCCN2)C1
viability, T/C (compound 0.00316 µM): 96.7% [middle of 4 runs] | viability, T/C (compound 0.01 µM): 73.4% [middle of 4 runs] | viability, T/C (compound 0.0316 µM): 57.7% [middle of 4 runs] | viability, T/C (compound 0.1 µM): 42.3% [middle of 4 runs] | viability, T/C (compound 0.316 µM): 30.9% [middle of 4 runs] | viability, T/C (compound 1 µM): 25.4% [middle of 4 runs]

IC50 (second compound 0.000949 µM): < 31.6 nM | IC50 (second compound 0.003 µM): < 31.6 nM | IC50 (second compound 0.00949 µM): < 31.6 nM | IC50 (second compound 0.03 µM): < 31.6 nM | IC50 (second compound 0.0949 µM): < 31.6 nM | IC50 (second compound 0.3 µM): < 31.6 nM
SMILES: CC(=O)OC12COC1CC(O)C1(C)C(=O)C(O)C3=C(C)C(OC(=O)C(O)C(NC(=O)OC(C)(C)C)c4ccccc4)CC(O)(C(OC(=O)c4ccccc4)C21)C3(C)C (configuration not stated) + CCn1c(-c2cc(N3CCN(C)CC3)cnc2C(C)OC)c2c3cc(ccc31)-c1csc(n1)CC(NC(=O)C1CC1C)C(=O)N1CCCC(N1)C(=O)OCC(C)(C)C2
viability, T/C (second compound 0.000949 µM, first compound 0.0316 µM): 37.4% | viability, T/C (second compound 0.000949 µM, first compound 0.1 µM): 33.5% | viability, T/C (second compound 0.000949 µM, first compound 0.316 µM): 37.2% | viability, T/C (second compound 0.000949 µM, first compound 1 µM): 30.1% | viability, T/C (second compound 0.000949 µM, first compound 3.16 µM): 25.9% | viability, T/C (second compound 0.000949 µM, first compound 10 µM): 19.9% | viability, T/C (second compound 0.003 µM, first compound 0.0316 µM): 23.8% | viability, T/C (second compound 0.003 µM, first compound 0.1 µM): 17% | viability, T/C (second compound 0.003 µM, first compound 0.316 µM): 23% | viability, T/C (second compound 0.003 µM, first compound 1 µM): 15.7% | viability, T/C (second compound 0.003 µM, first compound 3.16 µM): 12.3% | viability, T/C (second compound 0.003 µM, first compound 10 µM): 14.2% | viability, T/C (second compound 0.00949 µM, first compound 0.0316 µM): 11.2% | viability, T/C (second compound 0.00949 µM, first compound 0.1 µM): 13.6% | viability, T/C (second compound 0.00949 µM, first compound 0.316 µM): 12.8% | viability, T/C (second compound 0.00949 µM, first compound 1 µM): 12% | viability, T/C (second compound 0.00949 µM, first compound 3.16 µM): 7.75% | viability, T/C (second compound 0.00949 µM, first compound 10 µM): 7.15% | viability, T/C (second compound 0.03 µM, first compound 0.0316 µM): 6.77% | viability, T/C (second compound 0.03 µM, first compound 0.1 µM): 7.29% | viability, T/C (second compound 0.03 µM, first compound 0.316 µM): 9.54% | viability, T/C (second compound 0.03 µM, first compound 1 µM): 7.24% | viability, T/C (second compound 0.03 µM, first compound 3.16 µM): 6.73% | viability, T/C (second compound 0.03 µM, first compound 10 µM): 4.63% | viability, T/C (second compound 0.0949 µM, first compound 0.0316 µM): 7.39% | viability, T/C (second compound 0.0949 µM, first compound 0.1 µM): 5.34% | viability, T/C (second compound 0.0949 µM, first compound 0.316 µM): 4.2% | viability, T/C (second compound 0.0949 µM, first compound 1 µM): 4.62% | viability, T/C (second compound 0.0949 µM, first compound 3.16 µM): 4% | viability, T/C (second compound 0.0949 µM, first compound 10 µM): 2.6% | viability, T/C (second compound 0.3 µM, first compound 0.0316 µM): 9.13% | viability, T/C (second compound 0.3 µM, first compound 0.1 µM): 5.01% | viability, T/C (second compound 0.3 µM, first compound 0.316 µM): 3.87% | viability, T/C (second compound 0.3 µM, first compound 1 µM): 4.26% | viability, T/C (second compound 0.3 µM, first compound 3.16 µM): 3.58% | viability, T/C (second compound 0.3 µM, first compound 10 µM): 2.37%
